Experimental data: US6469000B1, “1,3-diheterocyclic metalloprotease inhibitors” (The Procter & Gamble Co., priority 1996, dated 2002)

Key:
Assay type in all cases: in vivo
[1] = tested on: human subject suffering from osteoarthritis; assay: Example B: capsule given daily to a subject with osteoarthritis; conditions: capsule containing 70 mg of Example 3 daily for 5 years, 90 kg person
Method: A capsule for oral administration, according to the present invention, is made comprising:
A human subject weighing 90 kg (198 lbs), suffering from osteoarthritis, is treated by a method of this invention. Specifically, for 5 years, a capsule containing 70 mg of Example 3 is administered daily to said subject.

[2] = tested on: patient suffering from chemical burns; assay: Example D: topical composition applied to chemical burns; conditions: 0.20% w/v Compound of Example 3, topical, at each dressing change (b.i.d.)
Source text: An topical composition for local administration, according to the present invention, is made comprising:
A patient suffering from chemical burns applies the composition at each dressing change (b.i.d.).

[3] = tested on: human subject suffering from rheumatoid arthritis; assay: Example A: tablets given orally to a subject with rheumatoid arthritis; conditions: tablet with 15 mg Example 9, three tablets per day orally for 2 years, 60 kg person
Method: A tablet composition for oral administration, according to the present invention, is made comprising:
A human subject weighing 60 kg (132 lbs), suffering from rheumatoid arthritis, is treated by a method of this invention. Specifically, for 2 years, a regimen of three tablets per day is administered orally to said subject.

SMILES: COc1ccc(S(=O)(=O)N2CCCN(S(C)(=O)=O)C2C(=O)NO)cc1 (racemic) [Example 3, N-hydroxy 1-[(4-methoxyphenyl)sulfonyl]-3-[methylsulphonyl]-hexahydro-pyrimidine-2(R, S)-carboxamide]
- erosion/fibrillation of the articular cartilage, examined via orthoscopy [1]: no further advancement of erosion/fibrillation of the articular cartilage
- scarring after chemical burns [2]: substantially diminished

SMILES: COc1ccc(S(=O)(=O)N2CC(C)(C)C(=O)N(Cc3ccccc3)C2C(=O)NO)cc1 (stereo not shown) [Example 9, N-hydroxy-1-[(4-methoxyphenyl)sulfonyl]-3-phenylmethyl-4-oxo-5,5-dimethyl-hexahydro-pyrimidin-2-carboxamide]
- inflammation at the end of the treatment period [3]: reduced inflammation
- mobility at the end of the treatment period [3]: improved mobility without concomitant pain
